Data: publication PMC7255010, “Small-molecule activating SIRT6 elicits therapeutic effects and synergistically promotes anti-tumor activity of vitamin D3 in colorectal cancer” (Theranostics, 2020)

Assays:
[1] = system: HCT116, HT29, and LOVO cells; test: Combination drug treatment, CCK-8, Chou-Talalay combination index; type: cell-based, human; details: MDL-811 (5 to 10 μM) plus 1,25(OH)2D3 (1 to 10 μM), 48 h, three CRC cell lines; CI < 1 = synergism
Experimental: 1,25(OH)2D3 was purchased from TargetMol. For cell proliferation assays, 1,25(OH)2D3 was dissolved in DMSO, stored at -20 °C and protected from light. The maximum final DMSO concentration used in all treatment conditions was 0.25%. […] Then, cell proliferation assays were performed using the CCK-8 method. Combination effects were analyzed by the Chou-Talalay combination index (CI) method. The CI values and the fraction of cells affected values were generated using CompuSyn Version 1.0 software. CI values of < 1, = 1, and > 1 indicate synergism, additivity, and antagonism between the drugs, respectively.

[2] = target: T1, SIRT6 (Homo sapiens, UniProt Q8N6T7); test: FDL assay of SIRT6 deacylase activity (EALPKK-Myr-AMC); type: biochemical; parameters: WT (wild-type) full-length human SIRT6 was inserted into the pET28a-LIC vector; made in house; host or cells: Escherichia coli BL21 (DE3); details: myristoyl peptide EALPKK-Myr-AMC
T1 sequence (Q8N6T7 whole entry): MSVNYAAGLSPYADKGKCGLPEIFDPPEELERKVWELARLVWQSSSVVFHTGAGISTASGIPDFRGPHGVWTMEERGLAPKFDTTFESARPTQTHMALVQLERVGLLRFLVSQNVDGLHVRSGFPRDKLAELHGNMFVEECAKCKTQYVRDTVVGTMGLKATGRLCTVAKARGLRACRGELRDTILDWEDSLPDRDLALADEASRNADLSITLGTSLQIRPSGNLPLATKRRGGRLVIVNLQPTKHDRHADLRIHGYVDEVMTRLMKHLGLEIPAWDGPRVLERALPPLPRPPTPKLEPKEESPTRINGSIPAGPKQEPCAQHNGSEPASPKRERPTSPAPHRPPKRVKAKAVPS
Experimental: According to previously described methods, WT (wild-type) full-length human SIRT6 was inserted into the pET28a-LIC vector (Addgene plasmid #26094). The plasmid was transformed into Escherichia coli BL21 (DE3) cells. Protein was purified using a nickel column and gel filtration. Purified protein was dialyzed into assay buffer (50 mM Tris-HCl [pH 8.0], 137 mM NaCl, 2.7 mM KCl, and 1 mM MgCl2) and used in all in vitro assays performed in this study.
[…], 5 μM WT SIRT6 was incubated in a 50-μL reaction mixture (2.5 mM NAD^+, […], compounds/DMSO, and assay buffer) at 37 °C for 2 h, quenched with 40 mM nicotinamide, and developed with 6 mg/mL trypsin for another 30 min at 25 °C. […] Fluorescence intensity was measured using a microplate reader (Synergy H4 Hybrid Reader, BioTek) at excitation and emission wavelengths of 360 nm and 460 nm, respectively. EC50 values were calculated by fitting the data points with the dose-response function in GraphPad Prism V7 (GraphPad Software). Each experiment was independently repeated three times in technical triplicates.

[3] = target: T1, SIRT6; test: Histone deacetylase enzyme selectivity assay; type: biochemical; parameters: endogenous in cells; host or cells: HEK293T; details: SIRT6, selectivity panel
Experimental: Then, the reaction was initiated by adding the fluorogenic HDAC acetylated substrate (also adding NAD^+ in the deacetylase assays of sirtuins) at the indicated concentrations at room temperature or 37 °C for the indicated durations. After incubation, the reaction was stopped with an equal volume of buffer containing 1 mL of HDAC developer (peptidase activity, BPS Bioscience); 20 µM trichostatin was also included for the termination in the deacetylase assays of HDAC1-11. After the indicated time, fluorescence intensity was measured using a microplate reader (Envision, Perkin Elmer) at excitation and emission wavelengths of 355 nm and 460 nm, respectively. We also developed deacetylase assays for SIRT5 and SIRT7, which were not available at CEREP. For SIRT5 deacetylation assay, HEK293T cells were transiently transfected with empty vector or pcDNA3.1-SIRT5-HA (10 μg/10 cm plate) using Neofect™ DNA transfection reagent. 48 h after transfection, cells were lysed in ice-cold NP-40 buffer (50 mM Tris-HCl [pH 8.0], 150 mM NaCl, 1% NP-40, and protease inhibitor cocktail) with rotation at 4 °C for 30 min. A particle-free supernatant solution was obtained by centrifugation at 13,600 × g for 15 min at 4 °C. […] The data points at various concentrations were expressed as percent inhibition or activation effects of the control activity. […]

[4] = system: adenomas in small intestines and colons of APC^min/+ mice; test: APC^min/+ model of spontaneous CRC; type: in vivo, C57BL/6J-APC^min/+ mice; details: 20 mg/kg intraperitoneal injection every two days for 12 weeks
Experimental: C57BL/6J-APC^min/+ mice were obtained from Jackson Laboratory. […] The mice were sacrificed in the twentieth week. Tumor numbers were calculated, and tumors were imaged after longitudinal dissection of the small intestine and colon. Then, the small intestines and colons were sectioned and stained for immunohistochemistry.

[5] = system: CRC cell lines (HCT116, HT29, SW480); test: LDH assay of cytotoxicity in CRC cell lines; type: cell-based; details: 48 h, pharmacological concentrations
Experimental: Cell cytotoxicity was assessed by measuring LDH release from damaged or dead cells using a Cytotoxicity LDH Assay Kit-WST (Dojindo) following the manufacturer's instructions. Briefly, 5 × 10^3 cells per well were plated in 96-well plates. […] The final DMSO concentration in the medium was 0.1%. The amount of LDH leakage from the cells was determined by measuring the absorbance at 490 nm using a microplate reader (Synergy H4 Hybrid Reader, BioTek). The percentage of cytotoxicity was calculated as follows: [(test sample - low control)/ (high control - low control)] × 100, where low control is the absorbance of the culture medium without any added extract, and high control is the absorbance of the culture medium in which the cells were treated with 1% (v/v) Triton X-100 to achieve 100% LDH release. Each data point is presented as the mean ± s.d. of three independent experiments.

[6] = system: HCT116 xenograft tumors; test: Combination treatment in the HCT116 CDX model; type: in vivo, BALB/c nude mice; details: 15 mg/kg MDL-811 plus 50 μg/kg 1,25(OH)2D3 intraperitoneally every other day for 14 days, vs vehicle or single drug

Cc1cc(F)c(Br)cc1NS(=O)(=O)c1ccc(NS(=O)(=O)c2cc(Cl)cc(Cl)c2)cc1CN1CCOC[C@H]1C [MDL-811]
CI values (Chou-Talalay) [1]: < 1 | effect on SIRT6 deacylation [2]: no apparent effect | Effect [3]: Activation | number and size of adenomas [4]: significantly reduced the number and size of adenomas | cytotoxicity (LDH release) [5]: minimal cytotoxic effect | tumor growth, cotreatment [6]: dramatically enhanced tumor growth regression
